Values after ≈ are worked out from the molar mass of the structure shown. Like-named read-outs stand apart in the source and are kept apart here.
Key:
M. intracelluare = assay: MIC by resazurin (REMA) assay against Mycobacterium, test strain 22; assay type: cell-based; details: Mycobacterium intracellulare; test strain 22, M. intracelluare, resazurin; read-out: MIC
Experimental: (§1) In order to test the antibacterial activity, the medium of Mycobacterium cultured to late log phase was diluted so as to be 4.0×10^5 cells/well in Middlebrook 7H10 agar medium (Difco) supplemented with 10% oleic acid, albumin, dextrose, catalase (OADC, Becton Dickinson) and 0.05% Tween 80 (Sigma Aldrich) and was dispensed into a 96-well plate. The compounds were treated so that DMSO was 1%, and after 3 days, a 0.025% resazurin (REMA) solution was dispensed, and the growth of the bacteria was confirmed after culturing. The MIC value was measured for the antibacterial activity through resazurin (excitation 530 nm, emission 590 nm).

S. aureus^VR = assay: MIC by broth microdilution (aerobic pathogens), test strain 4; assay type: cell-based, Vancomycin resistant Staphylococcus aureus; details: Staphylococcus aureus; test strain 4, S. aureus^VR (vancomycin resistant); read-out: MIC
Experimental: (§2) The antibacterial activity of the compounds of Examples 1 to 48 of the present invention against aerobic pathogens were evaluated by measuring the minimum concentration of the antibiotic capable of inhibiting bacterial growth by 90% compared to the growth of the non-drug treated control group. MIC was measured by the broth microdilution method based on CLSI standards [Reference: Clinical and Laboratory Standards Institute Document. (2000) Methods for Dilution Antimicrobial Susceptibility Test for Bacteria that Grow Aerobically-Fifth Edition: M7-A5. CLSI, Villanova, PA].
(§3) All 13 strains such as methicillin susceptible Staphylococcus aureus (MSSA), methicillin resistant Staphylococcus aureus (MRSA), Vancomycin resistant Staphylococcus aureus (VRSA), Staphylococcus epidermidis, methicillin resistant Staphylococcus epidermidis, Enterococcus faecalis, Vancomycin resistant Enterococcus faecalis, Enterococcus faecium, Vancomycin resistant Enterococcus faecium were used.

E. faecium = assay: MIC by broth microdilution (aerobic pathogens), test strain 10; assay type: cell-based; details: Enterococcus faecium; test strain 10, E. faecium; read-out: MIC
How it was run: (§4)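 MIC values come from a CLSI-standard broth microdilution method against a 13-strain panel spanning susceptible and vancomycin- or methicillin-resistant staphylococci and enterococci; 90% inhibition versus untreated growth defined the endpoint.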

C. difficile 161 = assay: MIC by agar dilution against Clostridioides difficile, test strain 16; assay type: cell-based; details: test strain 16, C. difficile 161, anaerobic, agar dilution, read-out: MIC
S. aureus^MS [1] = assay: MIC by broth microdilution (aerobic pathogens), test strain 2; assay type: cell-based; details: Staphylococcus aureus; test strain 2, S. aureus^MS; read-out: MIC
How it was run: as §4

C. difficile 159 = assay: MIC by agar dilution against Clostridioides difficile, test strain 15; assay type: cell-based; details: test strain 15, C. difficile 159, anaerobic, agar dilution, read-out: MIC
C. difficile 173 = assay: MIC by agar dilution against Clostridioides difficile, test strain 17; assay type: cell-based; details: test strain 17, C. difficile 173, anaerobic, agar dilution, read-out: MIC
C. difficile 174 = assay: MIC by agar dilution against Clostridioides difficile, test strain 18; assay type: cell-based; details: test strain 18, C. difficile 174, anaerobic, agar dilution, read-out: MIC
E. faecium^LinR = assay: MIC by broth microdilution (aerobic pathogens), test strain 12; assay type: cell-based, Linezolid resistant Enterococcus faecium; details: Enterococcus faecium; test strain 12, E. faecium^LinR (linezolid resistant); read-out: MIC
How it was run: as §4

E. faecalis = assay: MIC by broth microdilution (aerobic pathogens), test strain 7; assay type: cell-based; details: Enterococcus faecalis; test strain 7, E. faecalis; read-out: MIC
How it was run: as §4

C. difficile 152 = assay: MIC by agar dilution against Clostridioides difficile, test strain 14; assay type: cell-based; details: test strain 14, C. difficile 152, anaerobic, agar dilution, read-out: MIC
C. difficile 181 = assay: MIC by agar dilution against Clostridioides difficile, test strain 19; assay type: cell-based; details: test strain 19, C. difficile 181, anaerobic, agar dilution, read-out: MIC
C. difficile 9689 = assay: MIC by agar dilution against Clostridioides difficile, test strain 13; assay type: cell-based; details: test strain 13, C. difficile 9689, anaerobic, agar dilution, read-out: MIC
E. faecium^VRE = assay: MIC by broth microdilution (aerobic pathogens), test strain 11; assay type: cell-based, Vancomycin resistant Enterococcus faecium; details: Enterococcus faecium; test strain 11, E. faecium^VRE (vancomycin resistant); read-out: MIC
Experimental: as §2, §3

E. faecalis^VanA = assay: MIC by broth microdilution (aerobic pathogens), test strain 8; assay type: cell-based, Vancomycin resistant Enterococcus faecalis; details: Enterococcus faecalis; test strain 8, E. faecalis^VanA (vancomycin resistant); read-out: MIC
How it was run: as §4

S. epidermis^MR = assay: MIC by broth microdilution (aerobic pathogens), test strain 6; assay type: cell-based, Methicillin resistant Staphylococcus epidermidis; details: Staphylococcus epidermidis
How it was run: as §4

M. avium = assay: MIC by resazurin (REMA) assay against Mycobacterium, test strain 21; assay type: cell-based; details: test strain 21, M. avium, resazurin, read-out: MIC
Experimental: as §1

M. abscessus = assay: MIC by resazurin (REMA) assay against Mycobacterium, test strain 23; assay type: cell-based; details: Mycobacteroides abscessus; test strain 23, M. abscessus, resazurin; read-out: MIC
Experimental: as §1

S. aureus^MS [2] = assay: MIC by broth microdilution (aerobic pathogens), test strain 1; assay type: cell-based; details: Staphylococcus aureus; test strain 1, S. aureus^MS; read-out: MIC
How it was run: as §4

S. aureus^MR = assay: MIC by broth microdilution (aerobic pathogens), test strain 3; assay type: cell-based, Methicillin resistant Staphylococcus aureus; details: Staphylococcus aureus; test strain 3, S. aureus^MR (methicillin resistant); read-out: MIC
Experimental: as §2, §3

S. epidermis = assay: MIC by broth microdilution (aerobic pathogens), test strain 5; assay type: cell-based; details: Staphylococcus epidermidis; test strain 5, S. epidermis; read-out: MIC
How it was run: as §4

E. faecalis^LinR = assay: MIC by broth microdilution (aerobic pathogens), test strain 9; assay type: cell-based, Linezolid resistant Enterococcus faecalis; details: Enterococcus faecalis
How it was run: as §4

[3] = test strain 6, S. epidermis^MR (methicillin resistant), read-out: MIC
[4] = test strain 9, E. faecalis^LinR (linezolid resistant), read-out: MIC

SMILES	MIC (M. intracelluare) [µg/mL]	MIC (S. aureus^MS [1]) [µg/mL]	MIC (E. faecalis) [µg/mL]	MIC (M. avium) [µg/mL]	MIC (M. abscessus) [µg/mL]	MIC (S. aureus^MS [2]) [µg/mL]	MIC (S. epidermis) [µg/mL]	MIC (S. epidermis^MR; [3]) [µg/mL]	MIC (E. faecalis^LinR; [4]) [µg/mL]	MIC (E. faecium) [µg/mL]	MIC (C. difficile 161) [µg/mL]	MIC (C. difficile 173) [µg/mL]	MIC (C. difficile 174) [µg/mL]	MIC (E. faecium^LinR) [µg/mL]	MIC (C. difficile 152) [µg/mL]	MIC (C. difficile 9689) [µg/mL]	other results
C/C=C1\NC(=O)[C@H]([C@@H](C)O)NC(=O)c2csc(n2)-c2ccc(-c3nc(-c4nc(C(=O)NC5(C(=O)NCCCN6CCOCC6)CC5)cs4)cs3)nc2-c2csc(n2)[C@H]([C@@H](C)O)NC(=O)c2csc(n2)[C@H](C(C)C)NC(=O)c2csc1n2 [Compound 7]	0.107 (≈ 0.0882 µM)	0.25 (≈ 0.206 µM)	0.25 (≈ 0.206 µM)	0.083 (≈ 0.0684 µM)	0.322 (≈ 0.265 µM)	0.25 (≈ 0.206 µM)	0.0625 (≈ 0.0515 µM)	–	–	0.25 (≈ 0.206 µM)	0.5 (≈ 0.412 µM)	0.06 (≈ 0.0494 µM)	0.06 (≈ 0.0494 µM)	0.5 (≈ 0.412 µM)	0.06 (≈ 0.0494 µM)	0.25 (≈ 0.206 µM)	MIC (S. aureus^VR): 1 µg/mL (≈ 0.824 µM); MIC (C. difficile 159): 0.25 µg/mL (≈ 0.206 µM); MIC (C. difficile 181): 0.25 µg/mL (≈ 0.206 µM); MIC (E. faecium^VRE): 1 µg/mL (≈ 0.824 µM); MIC (E. faecalis^VanA): 0.25 µg/mL (≈ 0.206 µM); MIC (S. epidermis^MR): 0.125 µg/mL (≈ 0.103 µM); MIC (S. aureus^MR): 0.5 µg/mL (≈ 0.412 µM); MIC (E. faecalis^LinR): 0.125 µg/mL (≈ 0.103 µM)
C/C=C1\NC(=O)[C@H]([C@@H](C)O)NC(=O)c2csc(n2)-c2ccc(-c3nc(-c4nc(C(=O)NC5(C(=O)NCCN6CCN(S(C)(=O)=O)CC6)CC5)cs4)cs3)nc2-c2csc(n2)[C@H]([C@@H](C)O)NC(=O)c2csc(n2)[C@H](C(C)C)NC(=O)c2csc1n2 [Compound 29]	0.13 (≈ 0.102 µM)	0.25 (≈ 0.196 µM)	1 (≈ 0.783 µM)	0.161 (≈ 0.126 µM)	0.43 (≈ 0.337 µM)	0.25 (≈ 0.196 µM)	0.5 (≈ 0.392 µM)	0.5 (≈ 0.392 µM)	0.25 (≈ 0.196 µM)	–	–	–	–	–	–	–	–
C/C=C1\NC(=O)[C@H]([C@@H](C)O)NC(=O)c2csc(n2)-c2ccc(-c3nc(-c4nc(C(=O)NC5(C(=O)NCCN6CCN(S(N)(=O)=O)CC6)CC5)cs4)cs3)nc2-c2csc(n2)[C@H]([C@@H](C)O)NC(=O)c2csc(n2)[C@H](C(C)C)NC(=O)c2csc1n2 [Compound 30]	0.024 (≈ 0.0188 µM)	1 (≈ 0.783 µM)	1 (≈ 0.783 µM)	0.089 (≈ 0.0697 µM)	0.559 (≈ 0.438 µM)	0.5 (≈ 0.391 µM)	0.25 (≈ 0.196 µM)	1 (≈ 0.783 µM)	0.5 (≈ 0.391 µM)	–	–	–	–	–	–	–	–

Continued, in another order:

MIC (M. intracelluare) [µg/mL]	MIC (S. aureus^MS [1]) [µg/mL]	MIC (E. faecalis) [µg/mL]	MIC (M. avium) [µg/mL]	MIC (M. abscessus) [µg/mL]	MIC (S. aureus^MS [2]) [µg/mL]	MIC (S. epidermis) [µg/mL]	MIC (S. epidermis^MR; [3]) [µg/mL]	MIC (E. faecalis^LinR; [4]) [µg/mL]	SMILES	MIC (E. faecium) [µg/mL]	MIC (C. difficile 161) [µg/mL]	MIC (C. difficile 173) [µg/mL]	MIC (C. difficile 174) [µg/mL]	MIC (E. faecium^LinR) [µg/mL]	MIC (C. difficile 152) [µg/mL]	MIC (C. difficile 9689) [µg/mL]	other results
0.127 (≈ 0.103 µM)	1 (≈ 0.813 µM)	1 (≈ 0.813 µM)	0.082 (≈ 0.0667 µM)	0.173 (≈ 0.141 µM)	0.25 (≈ 0.203 µM)	0.5 (≈ 0.407 µM)	1 (≈ 0.813 µM)	0.5 (≈ 0.407 µM)	C/C=C1\NC(=O)[C@H]([C@@H](C)O)NC(=O)c2csc(n2)-c2ccc(-c3nc(-c4nc(C(=O)NC5(C(=O)NCCCN6CCSCC6)CC5)cs4)cs3)nc2-c2csc(n2)[C@H]([C@@H](C)O)NC(=O)c2csc(n2)[C@H](C(C)C)NC(=O)c2csc1n2 [Compound 18]	1 (≈ 0.813 µM)	1 (≈ 0.813 µM)	1 (≈ 0.813 µM)	0.25 (≈ 0.203 µM)	–	0.25 (≈ 0.203 µM)	0.5 (≈ 0.407 µM)	–
0.139 (≈ 0.112 µM)	–	0.5 (≈ 0.403 µM)	0.109 (≈ 0.0879 µM)	0.123 (≈ 0.0991 µM)	0.5 (≈ 0.403 µM)	0.25 (≈ 0.202 µM)	0.5 (≈ 0.403 µM)	1 (≈ 0.806 µM)	C/C=C1\NC(=O)[C@H]([C@@H](C)O)NC(=O)c2csc(n2)-c2ccc(-c3nc(-c4nc(C(=O)NC5(C(=O)NCCN6CCN(C(C)C)CC6)CC5)cs4)cs3)nc2-c2csc(n2)[C@H]([C@@H](C)O)NC(=O)c2csc(n2)[C@H](C(C)C)NC(=O)c2csc1n2 [Compound 35]	–	–	–	–	1 (≈ 0.806 µM)	–	–	–
